Data from patent US20050101674A1, “PPMP as a ceramide catabolism inhibitor for cancer treatment” (priority 2003, published 2005).
Read-outs that look alike come from different tables or passages of the source.

Key:
[1] = tested on: SK-N-RA neuroblastoma cells; experiment: DIMSCAN cytotoxicity assay in SK-N-RA cells; format: cell-based; details: combined with 4-HPR, +96 h
From the text: (§1) In the following examples, the DIMSCAN assay is a cell survival assay, not merely an apoptosis assay, and therefore reflects cancer cell killing due to both apoptosis and necrosis. DIMSCAN correlates directly with more traditional clonogenic assays. Moreover, DIMSCAN drug resistance profiles of cell lines correlate with prior patient therapy. DIMSCAN has successfully predicted clinical activity in high-risk neuroblastoma patients for the following new agents: 13-cis-retinoic acid, BSO+L-PAM, and fenretinide. Cytotoxicity assays are performed in 96 well microplates using a semi automated Digital Image Microscopy (DIMSCAN) system that has a dynamic range of greater than 4-5 logs of cell kill. Briefly, following incubation with study drugs, fluorescein diacetate [10 μg/ml (a vital stain)] is added to the microplate and incubated for twenty minutes. Eosin-Y (800 μg/ml) is then added to quench background fluorescence in the medium and non-viable cells. The plates are then read on an inverted microscope with the relative fluorescence of each well determined by the video imaging system software designed for the DIMSCAN system. […]
Survival fraction was measured using a digital imaging fluorescence-based microscopy assay (DIMSCAN) with approximately 5 log sensitivity. […]

[2] = tested on: PC-3 prostate cancer cells; experiment: DIMSCAN cytotoxicity assay in PC-3 cells; format: cell-based; details: PC-3, combined with 4-HPR, +96 h
From the text: as §1, with “system. We have done comparison studies and have shown that the relative fluorescent values obtained by DIMSCAN correlate to cell density (standard counts by trypan blue exclusion) and clonogenicity assays.” for “system.”

[3] = tested on: SK-N-RA neuroblastoma cells; experiment: Ceramide and glucosylceramide levels by [3H]-palmitic acid labeling and thin-layer chromatography, SK-N-RA; format: cell-based; details: for 4-HPR-induced glycosylceramide increase: FIG. 9 right panel; for 4-HPR-induced ceramide level / 4-HPR-induced glucosylceramide level: with 4-HPR 10 μM
Description: Assays were performed at +24 h.
SK-N-RA neuroblastoma cells were exposed to drugs at 10 μM concentrations for the time indicated.

[4] = tested on: PC-3 prostate cancer cells; experiment: Ceramide by [3H]-palmitic acid labeling and thin-layer chromatography, PC-3; details: PC-3, drug 10 μM, +24 h
Description: Lipids were assayed by labeling with [^3H]-palmitic acid and thin-layer chromatography at +24 h. […] Synergy assayed by Combination Index (C.I.): synergy, C.I.<1; additive, C.I.=1; antagonism, C.I.>1. Statistical analysis is by student's t-test.

[5] = tested on: six pediatric ALL cell lines; experiment: 4-HPR and D,L-threo-PPMP cytotoxicity in ALL cell line panel; format: cell-based
[6] = Plasma levels after intravenous formulations of 4-HPR; format: in vivo
[7] = low-dose 4-HPR; cited from earlier work
[8] = Continuous venous infusion (c.i.v.) of 4-HPR in rats; format: in vivo
From the text: Utilizing intravenous formulations, we have directly tested continuous venous infusion (c.i.v.) in rats. […] Accordingly, the anti-tumor activity of 4-HPR will be increased by other agents which modulate the metabolism of ceramide, such as inhibitors of glucosylceramide synthase and 1-O-acylceramide synthase.

[9] = tested on: normal fibroblasts, peripheral blood mononuclear cells, EBV-immortalized lymphoid cell line; experiment: 4-HPR ceramide in normal and non-transformed cells; format: cell-based; details: in vitro
From the text: Accordingly, the ability of 4-HPR to increase ceramide by de novo synthesis is most likely a malignancy (transformed phenotype)-specific event. Further, high-dose 4-HPR will have a favorable therapeutic index in vivo. Moreover, second agents that inhibit ceramide catabolism will also have a favorable therapeutic index in combination with 4-HPR, as normal tissues will not increase ceramide in response to 4-HPR.

[10] = tested on: cell lines of neuroblastoma, PNET/Ewing's sarcoma, breast and lung cancer; experiment: 4-HPR ceramide increase in tumor cell lines; format: cell-based
From the text: (§2) 4-HPR has been reported to increase Reactive Oxygen Species (ROS) in certain, but not all, solid tumor cell lines and leukemia cell lines in vitro as a mechanism of cytotoxicity. […] We, therefore, have explored alternative mechanisms of 4-HPR cytotoxicity.

[11] = tested on: variety of cancer cell lines; details: cancer cell lines in vitro; cited from earlier work
[12] = pediatrics, oral, cited from earlier work
[13] = tested on: normal fibroblasts, bone marrow myeloid progenitors, peripheral blood mononuclear cells, EBV-immortalized lymphoblastoid cell line; experiment: 4-HPR cytotoxicity in normal and non-malignant cells; format: cell-based; details: doses cytotoxic to cancer cell lines in vitro
From the text: Having established the potential of high-dose 4-HPR to treat resistant neuroblastoma, in order to investigate the therapeutic index of 4-HPR, we examined the cytotoxicity of 4-HPR in normal and non-malignant cell lines in vitro. […] Accordingly, 4-HPR cytotoxicity is most likely a malignancy-specific event, and high-dose 4-HPR may have an acceptable therapeutic index in vivo.

[14] = tested on: two neuroblastoma cell lines; experiment: Reactive oxygen species in neuroblastoma cell lines; format: cell-based
From the text: as §2

[15] = tested on: ceramide synthase; experiment: Direct assay of enzymatic activity, ceramide synthase; format: biochemical
From the text: (§3) We have determined in solid tumor and ALL cell lines in vitro, that the ceramide increased by 4-HPR treatment was derived from de novo synthesis.

[16] = adults, high-dose oral; cited from earlier work
[17] = tested on: serine palmitoyltransferase; experiment: Direct assay of enzymatic activity, serine palmitoyltransferase; format: biochemical
From the text: as §3

[18] = tested on: CEM; experiment: DIMSCAN cytotoxicity, ALL cell line CEM; format: cell-based; details: 4-HPR+PPMP 1:1 molar ratio, +96 hours
From the text: as §1, with “system. We have done comparison studies and have shown that the relative fluorescent values obtained by DIMSCAN correlate to cell density (standard counts by trypan blue exclusion) and clonogenicity assays.” for “system.”

[19] = tested on: intact cells; details: in intact cells; cited from earlier work
[20] = tested on: MOLT-4; experiment: DIMSCAN cytotoxicity, ALL cell line MOLT-4; format: cell-based; details: MOLT-4, 4-HPR+PPMP 1:1 molar ratio, +96 hours
From the text: as §1, with “system. We have done comparison studies and have shown that the relative fluorescent values obtained by DIMSCAN correlate to cell density (standard counts by trypan blue exclusion) and clonogenicity assays.” for “system.”

[21] = tested on: NALL-1; experiment: DIMSCAN cytotoxicity, ALL cell line NALL-1; format: cell-based; details: 4-HPR+PPMP 1:1, +96 hours
From the text: (§4) In the following examples, the DIMSCAN assay is a cell survival assay, not merely an apoptosis assay, and therefore reflects cancer cell killing due to both apoptosis and necrosis. DIMSCAN correlates directly with more traditional clonogenic assays. Moreover, DIMSCAN drug resistance profiles of cell lines correlate with prior patient therapy. DIMSCAN has successfully predicted clinical activity in high-risk neuroblastoma patients for the following new agents: 13-cis-retinoic acid, BSO+L-PAM, and fenretinide. Cytotoxicity assays are performed in 96 well microplates using a semi automated Digital Image Microscopy (DIMSCAN) system that has a dynamic range of greater than 4-5 logs of cell kill. Briefly, following incubation with study drugs, fluorescein diacetate [10 μg/ml (a vital stain)] is added to the microplate and incubated for twenty minutes. Eosin-Y (800 μg/ml) is then added to quench background fluorescence in the medium and non-viable cells. The plates are then read on an inverted microscope with the relative fluorescence of each well determined by the video imaging system software designed for the DIMSCAN system. We have done comparison studies and have shown that the relative fluorescent values obtained by DIMSCAN correlate to cell density (standard counts by trypan blue exclusion) and clonogenicity assays. The present invention is explained in greater detail in the following non-limiting examples.
(§5) Assayed by DIMSCAN at +96 hours. •=4-HPR; ▪=PPMP; □=4-HPR+PPMP; (1:1 molar ratio).

[22] = tested on: MOLT-3; experiment: DIMSCAN cytotoxicity, ALL cell line MOLT-3; format: cell-based; details: MOLT-3, 4-HPR+PPMP 1:1 molar ratio, +96 hours
From the text: as §4, with “The present invention is explained in greater detail in the following non-limiting examples.” left out

[23] = tested on: ALL cell lines; experiment: Glucosylceramide and ceramide in ALL cell lines; details: ALL cell lines examined
[24] = tested on: SMS-SB; experiment: DIMSCAN cytotoxicity, ALL cell line SMS-SB; format: cell-based; details: 4-HPR+PPMP 1:1, +96 hours
From the text: as §4, §5

[25] = tested on: NALM-6; experiment: DIMSCAN cytotoxicity, ALL cell line NALM-6; format: cell-based; details: NALM-6, 4-HPR+PPMP 1:1 molar ratio, +96 hours
From the text: as §4, with “The present invention is explained in greater detail in the following non-limiting examples.” left out

[26] = tested on: neuroblastoma cell lines; experiment: Toxicity of de novo ceramide synthesis inhibitors to neuroblastoma cell lines; format: cell-based
[27] = tested on: solid tumor and ALL cell lines; experiment: Effect of de novo ceramide synthesis inhibitors on 4-HPR-induced ceramide; format: cell-based; details: in vitro
From the text: as §3

[28] = tested on: MCF-7/tet breast cancer cells
Description: MCF-7/tet breast cancer cells exposed to ethanol (controls), 4-HPR(H) or 4-HPR+safingol (3:1 ratio)(H+S), without or with preincubation with L-cycloserine (2 mM)(+C) and assayed by DIMSCAN assay at +96 hrs. 4-HPR (•); 4-HPR/L-cycloserine (O); 4-HPR/safingol (3:1)(▾); 4-HPR/safingol/L-cycloserine (∇); L-cycloserine (2 mM) (□).

[29] = in vivo; cited from earlier work
[30] = rodents, x 10 days; cited from earlier work
[31] = tested on: Ehrlich ascites tumor cells xenografts; details: in vivo; cited from earlier work
[32] = tested on: human neuroblastoma murine xenograft; experiment: Human neuroblastoma murine xenograft models; format: in vivo; details: combined with 4-HPR

CCCCCCCCCCCCCCCC(=O)NC(CN1CCOCC1)C(O)c1ccccc1 (single isomer, unassigned) [D-threo-PPMP, D-threo-stereoisomer of 1-phenyl-2-palmitoylamino-3-morpholino-1-propanol]
synergy of 4-HPR cytotoxicity (in words) [1]: synergizes 4-HPR cytotoxicity more potently than does L-threo-PPMP | Combination Index (C.I.) of cytotoxic synergy with 4-HPR [2]: < 1 | 4-HPR-induced ceramide ([3]; drugs at 10 μM, FIG. 9 left panel, preliminary): increased 4-HPR-induced ceramide more than did L-threo-PPMP | 4-HPR-induced glycosylceramide increase ([3]; drugs at 10 μM, preliminary): prevented | ceramide in 4-HPR-treated cells [4]: increased ceramide

CC1=C(/C=C/C(C)=C/C=C/C(C)=C/C(=O)Nc2ccc(O)cc2)C(C)(C)CCC1 [4-HPR, N-(4-hydroxyphenyl)retinamide]
4-HPR cytotoxicity ([5]; all six tested ALL cell lines in vitro): multi-log cytotoxicity | systemic toxicity ([6]; dog, in vivo, iv): minimal systemic toxicity | 4-HPR plasma levels ([6]; intravenous formulations, rodent and canine models): 50 to 150 µM | reduction in premalignant oral lesions (leukoplakia) [7]: 30% | levels of 4-HPR in plasma and tissues [8]: high, sustained levels | ceramide in normal and non-transformed cells [9]: only minimally increased ceramide | increase of ceramide ([10]; dose- and time-dependent, in vitro, 'up to'): up to 13 fold | time at which ceramide increase began ([10]; post exposure): less than 2 hrs | 4-HPR concentrations that are cytotoxic [11]: 1 to 12 µM | maximally tolerated dose (MTD) ([12]; 7 days every 3 weeks): 2475 mg/m^2/day | systemic toxicity ([12]; at MTD): minimal systemic toxicity | ceramide level ([3]; 4-HPR 10 μM alone, +24 h): modestly increased | toxicity to normal and non-malignant cells [13]: minimally toxic | Reactive Oxygen Species (ROS) [14]: increased ROS | ceramide synthase activity [15]: stimulated the activities | recommended 'practical' dose for Phase II studies [16]: 1800 mg/m^2/day | serine palmitoyltransferase activity [17]: stimulated the activities

CCCCCCCCCCCCCCCC(=O)NC(CN1CCOCC1)C(O)c1ccccc1 [D,L-erythro-PPMP]
4-HPR-induced ceramide level ([3]; +24 h): further increased | 4-HPR-induced glucosylceramide level ([3]; +24 h): did not affect

CCCCCCCCCCCCCCCC(=O)NC(CN1CCOCC1)C(O)c1ccccc1 [D,L-threo-PPMP, D,L-threo-(1-phenyl-2-hexadecanoylamino-3-morpholino-1-propanol)]
number of ALL cell lines in which 4-HPR cytotoxicity was synergized ([5]; pediatric ALL cell lines): four of six | synergy of 4-HPR cytotoxicity (in words) [1]: more potently | Combination Index (C.I.) [18]: 1 | activity relative to PDMP [19]: 10-20 times | 4-HPR-induced ceramide level ([3]; +24 h): even more strongly increased | 4-HPR-induced glucosylceramide level ([3]; +24 h): prevented glucosylceramide formation | Combination Index (C.I.) [20]: < 1 | Combination Index (C.I.) ([21]; NALL-1, 3 μM): > 1 | Combination Index (C.I.) ([21]; NALL-1, 6 μM): 1 | Combination Index (C.I.) ([21]; NALL-1, 9 μM): < 1 | Combination Index (C.I.) [22]: < 1 | ceramide [23]: increased ceramide | glucosylceramide formation [23]: decreased glucosylceramide formation | Combination Index (C.I.) ([24]; 3 μM): > 1 | Combination Index (C.I.) ([24]; 6 μM): > 1 | Combination Index (C.I.) ([24]; 9 μM): 1 | Combination Index (C.I.) [25]: < 1

N[C@H]1CONC1=O [L-cycloserine]
toxicity as single agents [26]: proved toxic of themselves | effect on ceramide increase caused by 4-HPR treatment [27]: prevented the increase of ceramide | effect on 4-HPR-induced ceramide [28]: prevented ceramide increase

CCCCCCCCCCCCCCCC(=O)N[C@@H](CN1CCOCC1)[C@@H](O)c1ccccc1 [L-threo-PPMP]
4-HPR-induced glycosylceramide increase ([3]; drugs at 10 μM, preliminary): did not

CCCCCCCCCC(=O)NC(CN1CCOCC1)C(O)c1ccccc1 (stereo not drawn) [PDMP, 1-phenyl-2-[decanoylamino]-3; morpholino-1-propanol]
half-life [29]: approximately 1 hour | well tolerated dose [30]: ≤ 120 mg/kg/day | anti-tumor effect [31]: cures

CCCCCCCCCCCCCCC[C@H](O)[C@@H](N)CO [safingol, L-threo-dihydrosphingosine]
effect on anti-tumor activity of 4-HPR [32]: significantly increase the anti-tumor activity of 4-HPR

fumonisin B
toxicity as single agents [26]: proved toxic of themselves | effect on ceramide increase caused by 4-HPR treatment [27]: prevented the increase of ceramide
